Assay results taken from US9796755B2, “Methods of treating depression and other related diseases” (Northwestern University, priority 2009, dated 2017).
Where two headings read alike, the source gives them in different places. Where a SMILES comes first, the peptide text is derived from it.

Key:
[1] = CSF concentration of GLYX-13 after IV administration (LC-MS/MS); assay type: in vivo; conditions: male, Sprague Dawley, rat, cerebrospinal fluid (CSF), rats, read-out: Cmax within the CSF compartment
Procedure: Male Sprague Dawley rats (250-300 g) received intravenous injections of GLYX-13 (3-10 mg/kg), briefly anesthetized with isoflurane, and cerebrospinal fluid (CSF) samples drawn and stored at −70° C. until analysis.
CSF samples were precipitated with internal standard Pro-Thr-Pro-Ser-NH2 (SEQ ID NO: 20) in 400 μl of acetonitrile. Supernatant extract was separated by HPLC (LC-20AD, Shimadzu, Japan) using a Synergi 4μ Hydro-RP 8A column (Phenomenex, USA) with mobile phase of 100 mM ammonium formate with 0.1% formic acid for 0 1 minute followed by acetonitrile with 0.1% formic acid and samples were analyzed by LC-MS/MS (API4000, Applied Biosystems, USA) in ESI positive ion mode and the GLYX-13 (199.1 and 216.1) and IS (202.3) daughter ions quantified by multiple reaction monitoring. The lower limit of quantitation for the assay was 26.3 nM GLYX-13.

[2] = test system: rats; test: Prepulse inhibition; assay type: in vivo, rat; conditions: Sprague-Dawley rats; GLYX-13 10 mg/kg IV tested 15 min post injection; ketamine 10 mg/kg IP tested immediately
Procedure: Animals were given intravenous injections of GLYX-13 (10 mg/kg) or saline via chronic indwelling femoral vein cannulae and tested 15 min post injection, or intraperitoneal ketamine (10 mg/kg) or saline vehicle (1 mL/kg IV or IP respectively) and tested immediately post injection for prepulse inhibition.

[3] = test system: rats; test: Porsolt test after microinjection into medial prefrontal cortex or motor cortex; assay type: in vivo, rat
Procedure: To determine whether GLYX-13 acts in an area of the brain that is clinically relevant for depression, GLYX-13 was administered to either the medial prefrontal cortex (MPFC), which is associated with mood and depression, or to the motor cortex (FIG. 4). Mean time spent immobile in the Porsolt test was determined for groups of 10 three-month old male Fisher Brown Norway FI (FBNFI) rats pretreated with a single injection of GLYX-13 (1, 10 ug/side) or a single saline vehicle injection (0.5 ul/1 min) bilaterally into the medial prefrontal cortex or motor cortex (dorsal control) in animals with surgically implanted chronic indwelling cannulae aimed at the MPFC. […] Animals received a single 15 min training swim session one day before dosing.
The Porsolt test adapted for use in rats was performed as above. Animals were placed in a 46 cm tall×20 cm in diameter clear plastic tube filled to 30 cm with tap water (23±1° C.) for 15 min on the first day (habituation) and […] on the subsequent test day.
Bilateral 22-gauge guide cannulae (Plastic Products, USA) were stereotaxically implanted into the infralimbic/prelimbic cortex (+2.7 mm anterior,±1.2 mm lateral, 3.1 mm. ventral to bregma; cannulae angled 12° away from the midline) or dorsal control primary secondary motor cortex. (+2.7 mm anterior,±1.2 mm lateral, 1.0 mm ventral to bregma; cannulae angled 12° away from the midline). Animals were allowed 1 week to recover from surgery before the start of testing. After the completion of behavioral testing, histology was conducted for cannulae tip location. For medial prefrontal cannulae, all tips were located within the infralimbic or prelimbic cortex 2.2-3.2 mm anterior to bregma. For motor cortex cannulae, all tips were located, within the primary or secondary motor cortex 2.2-3.2 mm anterior to bregma.

[4] = test system: β-catenin; test: Total β-catenin protein level in medial prefrontal cortex; assay type: in vivo, rat; conditions: 24 hrs after GLYX-13 3 mg/kg IV or ketamine 10 mg/kg IV
[5] = test system: glycogen synthase kinase 3β (GSK-3β); test: Total and phosphoserine-9 GSK-3β by ELISA in medial prefrontal cortex; assay type: in vivo, rat; conditions: 24 hrs after GLYX-13 3 mg/kg IV or ketamine 10 mg/kg IV
Text: Total and Phosphoserine-9 glycogen synthase kinase 3β (GSK-3β) were quantified by ELISA according to the manufacturer's instructions (catalog numbers ADI-900-144 and ADI-900-123A, Assay Designs, USA). Total and phosphoserine-845 GluR1 were quantified by Western blot.

C[C@@H](O)[C@H](N)C(=O)N1CCC[C@H]1C(=O)N1CCC[C@H]1C(=O)N[C@H](C(N)=O)[C@@H](C)O [GLYX-13, L-threonyl-L-prolyl-L-prolyl-L-threonine amide] (H-TPPT-NH2)
Cmax ([1]; 3 mg/kg IV): 60 nM
Cmax ([1]; 10 mg/kg IV): 200 nM
prepulse inhibition, an indicator of dissociative effects [2]: did not exhibit either of these effects
effect on floating time in the Porsolt test ([3]; MPFC injection 1 μg/side, two weeks post dosing, independent group): Reduction in floating time was still apparent
effect on floating time in the Porsolt test ([3]; MPFC injections, 1 and 10 μg/side, 20 min post dosing): reduced floating time
reduction in floating compared to saline control or GLYX-13 injected into motor cortex ([3]; injected into MPFC, FBNF1 rats, 20 min post injection, Mean±SEM): 50±5%
total β-catenin [4]: reduced
phosphoserine-9 GSK-3β/total GSK-3β ratio [5]: reduced
